Reference: patent US5677282A (Proscript, Inc., priority 1995, dated 1997)
Where “and” joins values, the source holds several entries; their conditions need not be identical. Equal entries are not always repeated.

How the values were obtained:
stromelysin = stromelysin (Homo sapiens, UniProt P08254); experiment: Assay of stromelysin inhibition activity (fluorogenic coumarin peptide substrate); assay type: biochemical; details: trypsin-activated stromelysin 2 nM, H-150 buffer pH 7.4, room temperature; read-out: Ki(app)
Sequence of stromelysin (P08254 100-477): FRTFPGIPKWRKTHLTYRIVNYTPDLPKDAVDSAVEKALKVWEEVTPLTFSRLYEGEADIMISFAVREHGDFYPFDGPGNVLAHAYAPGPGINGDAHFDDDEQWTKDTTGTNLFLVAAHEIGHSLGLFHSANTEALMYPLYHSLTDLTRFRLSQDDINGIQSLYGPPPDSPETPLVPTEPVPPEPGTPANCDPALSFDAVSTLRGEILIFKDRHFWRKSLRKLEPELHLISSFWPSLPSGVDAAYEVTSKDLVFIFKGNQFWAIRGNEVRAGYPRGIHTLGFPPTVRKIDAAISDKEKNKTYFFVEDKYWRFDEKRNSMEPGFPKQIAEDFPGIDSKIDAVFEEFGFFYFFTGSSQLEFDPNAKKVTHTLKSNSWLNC
Procedure, shortened: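 Human stromelysin trypsin-activated, then used at 2 nM in HEPES/NaCl/CaCl2 buffer pH 7.4 at room temperature with coumarin peptide substrate. Initial hydrolysis rate followed by fluorescence (ex 328/em 393 nm); inhibitor added stepwise to 30-70% inhibition, Ki derived assuming simple competitive inhibition with substrate far below Km.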

72 kD gelatinase = target: T1, 72 kD gelatinase (Homo sapiens, UniProt P08253); experiment: Assay of 72 KD gelatinase inhibition activity; assay type: biochemical; details: 72KD gelatinase 180 pM, H-150 buffer pH 7.4; read-out: Ki(app)
T1 sequence (P08253 110-660): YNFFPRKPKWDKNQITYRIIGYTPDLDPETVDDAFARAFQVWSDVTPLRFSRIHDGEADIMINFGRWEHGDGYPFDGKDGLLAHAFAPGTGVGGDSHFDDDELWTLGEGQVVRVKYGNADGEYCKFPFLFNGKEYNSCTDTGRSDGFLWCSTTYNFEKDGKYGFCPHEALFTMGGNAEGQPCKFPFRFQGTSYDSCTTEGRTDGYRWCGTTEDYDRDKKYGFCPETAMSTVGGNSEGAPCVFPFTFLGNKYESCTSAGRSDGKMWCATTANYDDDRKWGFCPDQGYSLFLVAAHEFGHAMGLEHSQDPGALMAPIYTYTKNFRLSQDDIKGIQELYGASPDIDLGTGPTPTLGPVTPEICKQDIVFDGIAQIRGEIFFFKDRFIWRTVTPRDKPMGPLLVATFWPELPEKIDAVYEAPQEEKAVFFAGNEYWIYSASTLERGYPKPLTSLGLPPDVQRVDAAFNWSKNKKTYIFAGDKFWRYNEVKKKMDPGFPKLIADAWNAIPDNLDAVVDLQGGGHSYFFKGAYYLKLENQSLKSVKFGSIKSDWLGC
Protocol: H-150 buffer, pH 7.4, was prepared by CaCl2 H2O (1.47 grams), NaCl (8.77 grams) and N-[2 -hydroxyethyl]piperazine-N'-[2-ethanesulfonic acid](23.83 grams) to distilled and deionized water and then bring the final volume of the solution to 1 liter. An reaction mixture having a final volume of 250 μL was prepared with H-150 buffer, 40 μgrams of Pro-72KD gelatinase (Strongin, et al., J. Biol. Chem. 268:14033 (1993); Goldberg, et al., J. Biol. Chem., 267:4583 (1992); Kleiner, et al., Biochemistry 32:1583 (1993)) and p-aminophenyl mercuric acetate (Sigma Chemical Co., St. Louis, Mo.) (1 mM). The reaction mixture was then incubated for 3 hours at 25° C.
The reaction mixture was applied to a NAP-5 column (G-25 SEPHADEX™, Pharmacia). Fractions containing […] were identified using 12% SDS polyacrylamide gel electrphoresis and concentrated to about 100-200 μliters by centrifigation (5000 g, 15 minutes).
A solution containing H-150 buffer (2.0 mL), 72KD gelatinase (180 pM) and ethylphenolpoly(ethylene-glycolether)n (Boerhringer Mannheim) (1.3 μM) was prepared in a stirred cuvette. Coumarin peptide substrate (2 μL of a 1 mM solution in dimethyl sulfoxide) was added to the reaction mixture. The rate of hydrolysis was determined for about 100-200 seconds by measuring the fluorescence of the reaction at ex328 nanometers and […] using a Hitachi F-2000 Fluorescence Spectrophotometer.
2 μL of a 10 mM inhibitor stock solution (in dimethyl sulfoxide) is added and the reduction in the rate of hydrolysis is determined. Additional 2 μL aliquots of the stock inhibitor solution is added until a 30% to 70% inhibition is observed. Ki is calculated on the assumption of simple competitive inhibition and that the substrate concentration is much less than Km.

| Ki (stromelysin) | Ki (72 kD gelatinase) [nM] | SMILES |
| --- | --- | --- |
| 169 nM | 1.95 | CC(C)C[C@H](NC(=O)[C@H](Cc1ccccc1)NC(=O)OCc1ccccc1)C(=O)Nc1n[nH]c(=S)s1 [5-(N-benzyloxycarbonyl-phenylalanyl-leucylamino)-1,3,4-thiadiazole-2-thione] |
| 279 nM | 4.6 | CC(C)[C@H](NC(=O)[C@H](Cc1ccccc1)NC(=O)OCc1ccccc1)C(=O)Nc1n[nH]c(=S)s1 [5-(N-benzyloxycarbonyl-phenylalanyl-valylamino)-1,3,4-thiadiazole-2-thione] |

| SMILES | Ki (stromelysin) | Ki (72 kD gelatinase) [nM] |
| --- | --- | --- |
| O=C(N[C@@H](Cc1ccc(OCc2ccccc2)cc1)C(=O)N[C@H](C(=O)Nc1n[nH]c(=S)s1)c1ccccc1)OCc1ccccc1 | 39 nM and 64 nM | 0.145 |
